Assay results published in the supplement of paper PMC10307832.

Tests used:
Test in all cases: relative viability (nuclei count vs DMSO), 5 days (fraction); higher = more cells survive
Tipifarnib + Pictilisib = compound: Cn1cncc1[C@@](N)(c1ccc(Cl)cc1)c1ccc2c(c1)c(-c1cccc(Cl)c1)cc(=O)n2C [Tipifarnib] + CS(=O)(=O)N1CCN(Cc2cc3nc(-c4cccc5[nH]ncc45)nc(N4CCOCC4)c3s2)CC1 [Pictilisib] (partner 1 µM)
How it was run: (§1)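 Relative viability divides the nuclei count in treated wells by that in vehicle wells. Lung cancer cell lines were seeded in 1536-well plates, dosed by pin tool the next day, and fixed and stained after 5 days in one step with final 0.05% Triton X-100, 1% formaldehyde and 1 ug/ml Hoechst. Dosing was a single drug or a fixed anchor-drug dose plus five library-drug doses (not always all listed) in √10 steps, and values are medians of duplicate plates imaged at 4×.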

Tipifarnib + Bortezomib = compound: Cn1cncc1[C@@](N)(c1ccc(Cl)cc1)c1ccc2c(c1)c(-c1cccc(Cl)c1)cc(=O)n2C [Tipifarnib] + CC(C)C[C@H](NC(=O)[C@H](Cc1ccccc1)NC(=O)c1cnccn1)B(O)O [Bortezomib] (partner 0.002 µM)
How it was run: as §1

Tipifarnib + Foretinib = compound: Cn1cncc1[C@@](N)(c1ccc(Cl)cc1)c1ccc2c(c1)c(-c1cccc(Cl)c1)cc(=O)n2C [Tipifarnib] + COc1cc2c(Oc3ccc(NC(=O)C4(C(=O)Nc5ccc(F)cc5)CC4)cc3F)ccnc2cc1OCCCN1CCOCC1 [Foretinib] (partner 0.25 µM)
How it was run: as §1

Tipifarnib + Palbociclib = compound: Cn1cncc1[C@@](N)(c1ccc(Cl)cc1)c1ccc2c(c1)c(-c1cccc(Cl)c1)cc(=O)n2C [Tipifarnib] + CC(=O)c1c(C)c2cnc(Nc3ccc(N4CCNCC4)cn3)nc2n(C2CCCC2)c1=O [Palbociclib] (partner 0.5 µM)
How it was run: as §1

Cell Line | relative viability (Tipifarnib + Pictilisib; first compound 0.01 µM) | relative viability (Tipifarnib + Pictilisib; first compound 0.03162 µM) | relative viability (Tipifarnib + Pictilisib; first compound 0.1 µM) | relative viability (Tipifarnib + Pictilisib; first compound 0.3162 µM) | relative viability (Tipifarnib + Pictilisib; first compound 1 µM) | relative viability (Tipifarnib + Bortezomib; first compound 0.01 µM) | relative viability (Tipifarnib + Bortezomib; first compound 0.03162 µM) | relative viability (Tipifarnib + Bortezomib; first compound 0.1 µM) | relative viability (Tipifarnib + Bortezomib; first compound 0.3162 µM) | relative viability (Tipifarnib + Bortezomib; first compound 1 µM) | relative viability (Tipifarnib + Foretinib; first compound 0.01 µM) | relative viability (Tipifarnib + Foretinib; first compound 0.03162 µM) | relative viability (Tipifarnib + Foretinib; first compound 0.1 µM) | relative viability (Tipifarnib + Foretinib; first compound 0.3162 µM) | relative viability (Tipifarnib + Foretinib; first compound 1 µM) | relative viability (Tipifarnib + Palbociclib; first compound 0.01 µM) | relative viability (Tipifarnib + Palbociclib; first compound 0.03162 µM) | relative viability (Tipifarnib + Palbociclib; first compound 0.1 µM) | relative viability (Tipifarnib + Palbociclib; first compound 0.3162 µM) | relative viability (Tipifarnib + Palbociclib; first compound 1 µM)
NCI-H2009 | 0.981 | 0.579 | 0.524 | 0.466 | 0.319 | 1.11 | 0.775 | 0.678 | 0.642 | 0.373 | 1.3 | 1.11 | 0.84 | 0.645 | 0.7 | 0.204 | 0.206 | 0.193 | 0.298 | 0.152
NCI-H2023 | 0.238 | 0.212 | 0.203 | 0.169 | 0.159 | 1.27 | 0.757 | 0.45 | 0.453 | 0.156 | 0.958 | 0.7 | 0.609 | 0.336 | 0.505 | 0.297 | 0.284 | 0.238 | 0.211 | 0.202
NCI-H2085 | 0.513 | 0.478 | 0.446 | 0.541 | 0.43 | 1.15 | 0.729 | 0.695 | 0.601 | 0.72 | 0.853 | 0.6 | 0.493 | 0.497 | 0.589 | 0.492 | 0.431 | 0.472 | 0.413 | 0.506
NCI-H2087 | 0.796 | 0.682 | 0.587 | 0.427 | 0.385 | 0.705 | 0.418 | 0.375 | 0.276 | 0.39 | 0.999 | 0.371 | 0.333 | 0.292 | 0.3 | 0.212 | 0.233 | 0.23 | 0.11 | 0.193
NCI-H2126 | 0.491 | 0.492 | 0.518 | 0.478 | 0.391 | 1.05 | 1.07 | 1.13 | 1.05 | 0.669 | 1.06 | 1.55 | 1.1 | 1.12 | 1.12 | 0.353 | 0.332 | 0.345 | 0.35 | 0.354
NCI-H2228 | 0.369 | 0.388 | 0.325 | 0.202 | 0.243 | 1.2 | 0.615 | 0.727 | 0.577 | 0.404 | 1.04 | 0.815 | 0.636 | 0.495 | 0.672 | 0.971 | 0.599 | 0.353 | 0.551 | 0.29
NCI-H2347 | 0.613 | 0.478 | 0.658 | 0.648 | 0.404 | 0.897 | 0.469 | 0.751 | 0.698 | 0.738 | 1.34 | 0.76 | 0.723 | 0.756 | 0.528 | 0.361 | 0.388 | 0.398 | 0.381 | 0.361
NCI-H2405 | 0.406 | 0.412 | 0.351 | 0.405 | 0.404 | 0.983 | 0.909 | 0.985 | 0.923 | 0.61 | 1.06 | 1.03 | 1.03 | 0.993 | 0.923 | 0.562 | 0.517 | 0.525 | 0.492 | 0.517
